# Experimental data: patent publication US20080045534A1, “Derivatives of 1,3-diamino benzene as potassium channel modulators” (Valeant Pharmaceuticals North America, priority 2006, published 2008)
# Biological target: T1, KCNQ 2/3 (Rattus norvegicus, UniProt O88943+O88944)
# T1 construct: endogenous in cells; host or cells: PC-12 cells differentiated with NGF-7s
# Experiment: rubidium (Rb+) efflux assay in NGF-differentiated PC-12 cells
# Format: cell-based
# Settings: concentration for 50% of maximal Rb+ efflux, depolarization buffer (15 mM KCl), 10 min at room temperature
# Method: Compounds of this invention formula were evaluated as KCNQ 2/3 modulators by measuring rhubidium release in the following assay.
# Methods: PC-12 cells were grown at 37° C. and 5% CO2 in DMEM/F12 Medium supplemented with 10% horse serum, 5% fetal bovine serum, 2 mM glutamine, 100 U/ml penicillin, 100 U/ml streptomycin. They were plated in poly-D-lysine-coated 96-well cell culture microplates at a density of 40,000 cells/well and differentiated with 100 ng/ml NGF-7s for 2-5 days. For the assay, the medium was aspirated and the cells were washed once with 0.2 ml in wash buffer (25 mM Hepes, pH 7.4, 150 mM NaCl, 1 mM MgCl2, 0.8 mM NaH2PO4, 2 mM CaCl2). The cells were then loaded with 0.2 ml Rb^+ loading buffer (wash buffer plus 5.4 mM […], 5 mM glucose) and incubated at 37° C. for 2 h. Attached cells were quickly washed three times with buffer (same as Rb^+ loading buffer, but containing 5.4 mM KCl instead of RbCl) to remove extracellular Rb^+. Immediately following the wash, 0.2 ml of depolarization buffer (wash buffer plus 15 mM KCl) with or without compounds was added to the cells to activate efflux of potassium ion channels. After incubation for 10 min at room temperature, the supernatant was carefully removed and collected. Cells were lysed by the addition of 0.2 ml of lysis buffer (depolarization buffer plus 0.1% Triton X-100) and the cell lysates were also collected. If collected samples were not immediately analyzed for Rb^+ contents by atomic absorption spectroscopy (see below), they were stored at 4° C. without any negative effects on subsequent Rb^+ analysis.
# The concentration of Rb^+ in the supernatants (Rb^+Sup) and cell lysates (Rb^+Lys) was quantified using an ICR8000 flame atomic absorption spectrometer (Aurora Biomed Inc., Vancouver, B.C.) under conditions defined by the manufacturer. One 0.05 ml samples were processed automatically from microtiter plates by dilution with an equal volume of Rb^+ sample analysis buffer and injection into an air-acetylene flame. The amount of Rb^+ in the sample was measured by absorption at 780 nm using a hollow cathode lamp as light source and a PMT detector. A calibration curve covering the range 0-5 mg/L Rb^+ in sample analysis buffer was generated with each set of plates. The percent Rb^+ efflux (F) was defined by
# F=[Rb^+Sup/(Rb^+Sup+Rb^+Lys)]×100%.
# The effect (E) of a compound was defined by:
# where the Fc is the efflux in the presence of compound in depolarization buffer, Fb is the efflux in basal buffer, and Fs is the efflux in depolarization buffer, and. The effect (E) and compound concentration relationship was plotted to calculate an EC50 value, a compound's concentration for 50% of maximal Rb^+ efflux. Legend: A: EC50<50 nM; B: EC50=50 nM-200 nM; C: EC50=200 nM-1.0 μM; D: EC50=1.0 μM-10 μM; E: EC50>10 μM
row,EC50,SMILES
1,< 50 nM,Cc1ccc(NCc2ccc(F)cc2)c(C)c1NC(=O)CCC1CCCC1
2,1000 to 10000 nM,Cc1ccc(NC(=O)CC(C)(C)C)cc1N1CCOCC1
3,1000 to 10000 nM,Cc1c(N2CCOCC2)ccc(F)c1NC(=O)CC(C)(C)C
4,1000 to 10000 nM,COc1ccc(N2CCOCC2)c(C)c1NC(=O)CC(C)(C)C
5,50 to 200 nM,Cc1ccc(NCc2ccc(F)cc2)c(C)c1NC(=O)CC(C)(C)C
6,> 10000 nM,CC(C)(C)CC(=O)Nc1ccc(F)c(N2CCOCC2)c1
7,> 10000 nM,Cc1ccc(N2CCOCC2)cc1NC(=O)CC(C)(C)C
8,50 to 200 nM,CCc1ccc(NCc2ccc(F)cc2)c(C)c1NC(=O)CC(C)(C)C
9,200 to 1000 nM,Cc1ccc(N2CCc3ccccc3C2)cc1NC(=O)CC(C)(C)C
10,< 50 nM,Cc1ccc(NCc2ccc(C(F)(F)F)cc2)c(C)c1NC(=O)CCC1CCCC1
11,> 10000 nM,Cc1c(NC(=O)CC(C)(C)C)cccc1N1CCOCC1
12,1000 to 10000 nM,Cc1ccc(N2CCOCC2)c(C)c1NC(=O)CC(C)(C)C
13,< 50 nM,CCc1ccc(NCc2ccc(F)cc2)c(CC)c1NC(=O)CCC1CCCC1
14,50 to 200 nM,CCc1c(NCc2ccc(F)cc2)ccc(C)c1NC(=O)CC(C)(C)C
15,1000 to 10000 nM,Cc1cc(Cl)c(N2CCOCC2)cc1NC(=O)CC(C)(C)C
16,50 to 200 nM,COc1ccc(NCc2ccc(F)cc2)c(C)c1NC(=O)CCC1CCCC1
17,50 to 200 nM,Cc1ccc(NCc2ccc(F)cc2)c(Cl)c1NC(=O)CC(C)(C)C
18,50 to 200 nM,Cc1c(NCc2ccc(F)cc2)cccc1NC(=O)CC(C)(C)C
19,200 to 1000 nM,Cc1ccc(NCc2ccc(F)cc2)cc1NC(=O)CC(C)(C)C
20,1000 to 10000 nM,CC(C)(C)CC(=O)Nc1cc(N2CCOCC2)c(F)cc1F
21,200 to 1000 nM,Cc1ccc(NCc2ccc(C(F)(F)F)cc2)c(C)c1NC(=O)CC(C)(C)C
